From ChEMBL document CHEMBL4411323 (Bioorg Med Chem, 2019)

The molecules below were run against Serine/threonine-protein kinase B-raf (Homo sapiens, UniProt P15056, V600E) (assay: Inhibition of human BRAF V600E mutant using myelin basic protein as substrate measured after 40 mins in presence of [gamma33P-ATP] by scintillation counting method).
Chain of Serine/threonine-protein kinase B-raf (P15056 2-766 V600E limits assumed): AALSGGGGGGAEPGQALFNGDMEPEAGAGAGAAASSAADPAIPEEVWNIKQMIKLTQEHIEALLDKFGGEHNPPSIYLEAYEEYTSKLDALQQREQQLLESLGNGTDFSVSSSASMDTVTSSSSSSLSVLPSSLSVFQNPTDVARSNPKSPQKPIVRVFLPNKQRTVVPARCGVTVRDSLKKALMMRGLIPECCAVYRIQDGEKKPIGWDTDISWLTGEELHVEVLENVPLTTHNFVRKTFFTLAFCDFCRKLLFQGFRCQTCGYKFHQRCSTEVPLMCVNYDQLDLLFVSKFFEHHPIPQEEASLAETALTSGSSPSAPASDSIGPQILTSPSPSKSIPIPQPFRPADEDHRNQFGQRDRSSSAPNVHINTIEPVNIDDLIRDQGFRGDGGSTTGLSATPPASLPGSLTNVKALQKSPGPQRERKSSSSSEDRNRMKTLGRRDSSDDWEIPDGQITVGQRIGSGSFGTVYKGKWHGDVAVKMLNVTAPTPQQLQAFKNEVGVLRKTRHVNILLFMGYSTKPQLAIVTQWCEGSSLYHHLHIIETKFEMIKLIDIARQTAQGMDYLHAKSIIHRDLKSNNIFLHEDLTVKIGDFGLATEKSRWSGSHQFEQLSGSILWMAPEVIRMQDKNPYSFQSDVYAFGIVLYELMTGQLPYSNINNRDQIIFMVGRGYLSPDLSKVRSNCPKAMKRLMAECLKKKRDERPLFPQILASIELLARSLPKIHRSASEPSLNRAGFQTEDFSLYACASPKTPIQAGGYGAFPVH

| SMILES | IC50 [µM] |
| --- | --- |
| COc1cc(Cl)cc(-c2nn(-c3cccc(NC(=O)c4cc(C(F)(F)F)cc(C(F)(F)F)c4)c3)cc2-c2ccncc2)c1 | 7.41 |
| COc1cc(Cl)cc(-c2nn(-c3cccc(NC(=O)c4ccc(Cl)c(Cl)c4)c3)cc2-c2ccncc2)c1 | 87.2 |
| O=C(Nc1cccc(-n2cc(-c3ccncc3)c(-c3cc(O)cc(Cl)c3)n2)c1)c1cc(C(F)(F)F)cc(C(F)(F)F)c1 | 0.212 |
| O=C(Nc1ccccc1)Nc1cccc(-n2cc(-c3ccncc3)c(-c3cc(O)cc(Cl)c3)n2)c1 | 0.919 |
| COc1cc(Cl)cc(-c2nn(-c3cccc(NC(=O)Nc4cccc(C(F)(F)F)c4)c3)cc2-c2ccncc2)c1 | 0.475 |
| O=C(Nc1cccc(-n2cc(-c3ccncc3)c(-c3cc(O)cc(Cl)c3)n2)c1)Nc1cc(C(F)(F)F)cc(C(F)(F)F)c1 | 2.11 |
| COc1cc(Cl)cc(-c2nn(-c3cccc(NC(=O)c4ccccc4)c3)cc2-c2ccncc2)c1 | 3.69 |
| COc1cc(Cl)cc(-c2nn(-c3cccc(NC(=O)c4ccc(N5CCOCC5)c(C(F)(F)F)c4)c3)cc2-c2ccncc2)c1 | 0.348 |
| COc1cc(Cl)cc(-c2nn(-c3cccc(NC(=O)Nc4ccccc4)c3)cc2-c2ccncc2)c1 | 0.488 |
| COc1cc(Cl)cc(-c2nn(-c3cccc(NC(=O)Nc4ccc(Cl)c(Cl)c4)c3)cc2-c2ccncc2)c1 | 0.251 |

Now those with a lower IC50, led by results:

| IC50 [µM] | SMILES |
| --- | --- |
| 0.189 | COc1cc(Cl)cc(-c2nn(-c3cccc(NC(=O)Nc4ccc(Cl)c(C(F)(F)F)c4)c3)cc2-c2ccncc2)c1 |
| 0.16 | COc1cc(Cl)cc(-c2nn(-c3cccc(NC(=O)c4cccc(C(F)(F)F)c4)c3)cc2-c2ccncc2)c1 |
| 0.047 | O=C(Nc1cccc(-n2cc(-c3ccncc3)c(-c3cc(O)cc(Cl)c3)n2)c1)c1ccc(Cl)c(Cl)c1 |
| 0.045 | O=C(Nc1cccc(-n2cc(-c3ccncc3)c(-c3cc(O)cc(Cl)c3)n2)c1)Nc1ccc(Cl)c(Cl)c1 |
| 0.038 | O=C(Nc1cccc(-n2cc(-c3ccncc3)c(-c3cc(O)cc(Cl)c3)n2)c1)c1cccc(C(F)(F)F)c1 |
| 0.03 | O=C(Nc1cccc(-n2cc(-c3ccncc3)c(-c3cc(O)cc(Cl)c3)n2)c1)Nc1cccc(C(F)(F)F)c1 |
| 0.026 | O=C(Nc1cccc(-n2cc(-c3ccncc3)c(-c3cc(O)cc(Cl)c3)n2)c1)c1ccccc1 |
| 0.014 | O=C(Nc1cccc(-n2cc(-c3ccncc3)c(-c3cc(O)cc(Cl)c3)n2)c1)c1ccc(N2CCOCC2)c(C(F)(F)F)c1 |
| 0.007 | O=C(Nc1cccc(-n2cc(-c3ccncc3)c(-c3cc(O)cc(Cl)c3)n2)c1)Nc1ccc(Cl)c(C(F)(F)F)c1 |
